From the NIST ThermoML archive (doi:10.1021/je1001544)
± gives the expanded uncertainty stated by the source.

Assays:
[1] = refractive index (Na D-line) (dimensionless); settings: 298.15 K; 101.33 kPa; Liquid; Standard Abbe refractometry
[2] = 298.15 K; 101.33 kPa; Liquid; Vibrating tube method

Structure (SMILES)	refractive index [1]	mass density [2] [kg/m3]
CCCCCCCCC [nonane]	1.40326 ± 0.00037	713.99 ± 0.25
CCCCCCC [heptane]	1.38515 ± 0.00033	679.56 ± 0.18
CCOS(=O)(=O)[O-].CCn1cc[n+](C)c1 [1-ethyl-3-methylimidazolium ethyl sulfate]	1.4791 ± 0.00037	1237.23 ± 0.43
CCCCCCCC [octane]	1.39519 ± 0.00033	698.6 ± 0.18
CCCCCC [hexane]	1.37234 ± 0.00037	655.19 ± 0.25
c1ccccc1 [benzene]	1.49774 ± 0.00031	873.57 ± 0.1
